Test results from ChEMBL document CHEMBL1212752, “Efficacy of posaconazole in a murine disseminated infection by Candida tropicalis” (2010).

Experiments:
Assay type in all cases: functional
Candida tropicalis [1] = test: Antifungal activity against Candida tropicalis FMR 8895 assessed as inhibition of growth by broth dilution method
Candida tropicalis [2] = test: Antifungal activity against Candida tropicalis FMR 8896 assessed as inhibition of growth by broth dilution method
Candida tropicalis [3] = test: Antifungal activity against Candida tropicalis FMR 8897 assessed as inhibition of growth by broth dilution method
Candida tropicalis [4] = test: Antifungal activity against Candida tropicalis FMR 8898 assessed as inhibition of growth by broth dilution method
Candida tropicalis [5] = test: Antifungal activity against Candida tropicalis FMR 9726 assessed as inhibition of growth by broth dilution method
Candida tropicalis [6] = test: Antifungal activity against Candida tropicalis FMR 9727 assessed as inhibition of growth by broth dilution method
Candida tropicalis [7] = test: Antifungal activity against Candida tropicalis FMR 10231 assessed as inhibition of growth by broth dilution method
Candida tropicalis [8] = test: Antifungal activity against Candida tropicalis FMR 10232 assessed as inhibition of growth by broth dilution method
Candida tropicalis [9] = test: Antifungal activity against Candida tropicalis FMR 10333 assessed as inhibition of growth by broth dilution method
Candida tropicalis [10] = test: Antifungal activity against Candida tropicalis FMR 10234 assessed as inhibition of growth by broth dilution method
Candida tropicalis [11] = test: Antifungal activity against Candida tropicalis FMR 10235 assessed as inhibition of growth by broth dilution method
Candida tropicalis [12] = test: Antifungal activity against Candida tropicalis FMR 10236 assessed as inhibition of growth by broth dilution method
Candida tropicalis [13] = test: Antifungal activity against Candida tropicalis FMR 10237 assessed as inhibition of growth by broth dilution method
Candida tropicalis [14] = test: Antifungal activity against Candida tropicalis FMR 10238 assessed as inhibition of growth by broth dilution method
Candida tropicalis [15] = test: Antifungal activity against Candida tropicalis FMR 10239 assessed as inhibition of growth by broth dilution method
Candida tropicalis [16] = test: Antifungal activity against Candida tropicalis FMR 10240 assessed as inhibition of growth by broth dilution method
Candida tropicalis [17] = test: Antifungal activity against Candida tropicalis FMR 10241 assessed as inhibition of growth by broth dilution method
Candida tropicalis [18] = test: Antifungal activity against Candida tropicalis FMR 8895 assessed as compound concentration causing =>99% reduction in microbial growth
Candida tropicalis [19] = test: Antifungal activity against Candida tropicalis FMR 8896 assessed as compound concentration causing =>99% reduction in microbial growth
Candida tropicalis [20] = test: Antifungal activity against Candida tropicalis FMR 8897 assessed as compound concentration causing =>99% reduction in microbial growth
Candida tropicalis [21] = test: Antifungal activity against Candida tropicalis FMR 8898 assessed as compound concentration causing =>99% reduction in microbial growth
Candida tropicalis [22] = test: Antifungal activity against Candida tropicalis FMR 9726 assessed as compound concentration causing =>99% reduction in microbial growth
Candida tropicalis [23] = test: Antifungal activity against Candida tropicalis FMR 9727 assessed as compound concentration causing =>99% reduction in microbial growth
Candida tropicalis [24] = test: Antifungal activity against Candida tropicalis FMR 10231 assessed as compound concentration causing =>99% reduction in microbial growth
Candida tropicalis [25] = test: Antifungal activity against Candida tropicalis FMR 10232 assessed as compound concentration causing =>99% reduction in microbial growth
Candida tropicalis [26] = test: Antifungal activity against Candida tropicalis FMR 10333 assessed as compound concentration causing =>99% reduction in microbial growth
Candida tropicalis [27] = test: Antifungal activity against Candida tropicalis FMR 10234 assessed as compound concentration causing =>99% reduction in microbial growth
Candida tropicalis [28] = test: Antifungal activity against Candida tropicalis FMR 10235 assessed as compound concentration causing =>99% reduction in microbial growth
Candida tropicalis [29] = test: Antifungal activity against Candida tropicalis FMR 10236 assessed as compound concentration causing =>99% reduction in microbial growth
Candida tropicalis [30] = test: Antifungal activity against Candida tropicalis FMR 10237 assessed as compound concentration causing =>99% reduction in microbial growth
Candida tropicalis [31] = test: Antifungal activity against Candida tropicalis FMR 10238 assessed as compound concentration causing =>99% reduction in microbial growth
Candida tropicalis [32] = test: Antifungal activity against Candida tropicalis FMR 10239 assessed as compound concentration causing =>99% reduction in microbial growth

CC[C@@H]([C@H](C)O)n1ncn(-c2ccc(N3CCN(c4ccc(OC[C@@H]5CO[C@@](Cn6cncn6)(c6ccc(F)cc6F)C5)cc4)CC3)cc2)c1=O [POSACONAZOLE]
0.5 µg/mL: MIC50 (Candida tropicalis [5])
< 0.03 µg/mL: MIC50 (Candida tropicalis [6]) | MIC50 (Candida tropicalis [15]) | MIC50 (Candida tropicalis [16])
1 µg/mL: MIC50 (Candida tropicalis [13]) | MFC (Candida tropicalis [32])
> 16 µg/mL: MIC50 (Candida tropicalis [1]) | MFC (Candida tropicalis [18]) | MFC (Candida tropicalis [19]) | MFC (Candida tropicalis [20]) | MFC (Candida tropicalis [21]) | MFC (Candida tropicalis [22]) | MFC (Candida tropicalis [23]) | MFC (Candida tropicalis [24]) | MFC (Candida tropicalis [25]) | MFC (Candida tropicalis [26]) | MFC (Candida tropicalis [27]) | MFC (Candida tropicalis [28]) | MFC (Candida tropicalis [29]) | MFC (Candida tropicalis [30]) | MFC (Candida tropicalis [31])
0.06 µg/mL: MIC50 (Candida tropicalis [3]) | MIC50 (Candida tropicalis [7]) | MIC50 (Candida tropicalis [8]) | MIC50 (Candida tropicalis [9]) | MIC50 (Candida tropicalis [10]) | MIC50 (Candida tropicalis [12]) | MIC50 (Candida tropicalis [14])
0.125 µg/mL: MIC50 (Candida tropicalis [2]) | MIC50 (Candida tropicalis [4]) | MIC50 (Candida tropicalis [11]) | MIC50 (Candida tropicalis [17])
